Results published in patent US4122184A, “Benzimidazole insecticides” (priority 1977, dated 1978).

Columns and labels:
Boll Weevil = Boll Weevil Test; type: in vivo, Anthonomus grandis (Coleoptera); conditions: 48 h
Excerpt: The procedure is identical to that employed for the Mexican bean beetle and the Southern armyworm, except that 10 adult boll weevils are placed on cotton leaves that have been dipped into formulations of the test compounds. The same rating scale is used.

Squash Bug Adults = assay: Field trial, contact poison test; type: in vivo; set-up: key: 0-9 rating: 0 = 0-10% mortality, 9 = 91-100% mortality
Procedure, shortened: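 Infested host plants were kept in water-filled bottles with cellucotton around the stem and sprayed with different compound concentrations by atomizer at 10 psi from arm's length. Mortality was read at 24, 48 and 72 h on a 0–9 scale (0 = 0-10%, 9 = 91-100% mortality), averaged per concentration.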

Yellow Mealworm Larvae = assay: Field trial, topical application; type: in vivo; set-up: key: 0 = 0-10% mortality, 9 = 91-100% mortality (0-9 scale)
Procedure, shortened: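 1 μL benzimidazole solution of set microgram content applied topically to larvae or adults. Mortality read at 24, 48 and 72 h where applicable, rated 0-9 (0 = 0-10%, 9 = 91-100%); values are average mortality per concentration.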

[1] = test system: Southern Corn Rootworm Adults; assay: Field trial, stomach poison test; type: in vivo; set-up: key: mortality rating on a 0 to 9 scale
Procedure, shortened: (§1)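 Treated foliage (dipped, or sprayed at 10 psi, then dried) is offered to counted insects in dishes. Scoring of mortality uses a 0–9 scale at three time points up to 72 h.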

[2] = test system: Striped Cucumber Beetle Adults; assay: Field trial, stomach poison test; type: in vivo; set-up: key: mortality rating on a 0 to 9 scale
Procedure, shortened: as §1

Bean Leaf Beetle = assay: Field trial, stomach poison test; type: in vivo
Procedure, shortened: as §1

Southern Armyworm = Southern Armyworm Test; type: in vivo, Prodenia eridania (Lepidoptera); conditions: 48 h
Method: Ten uniform Southern armyworm larvae about 1-1.5 cm. in length, grown on Henderson lima beans, are placed on excized bean leaves in petri dishes. The bean leaves are obtained and sprayed with the insecticide in the same way as are the snap bean leaves in the Mexican bean beetle test. The reference standards in this instance are leaves sprayed with 5 ml. 100 ppm DDT solution. Mortality counts are made 48 hours after spraying and again moribund larvae are counted as dead. Missing larvae which have probably been eaten are considered alive. The same rating scale is used as in the Mexican bean beetle test.

Oriental Cockroach = assay: Oriental Roach Test; type: in vivo, Blatta orientalis (Orthoptera); conditions: 24 h
Method: A rearing pan of late instar (3-4 months old) roaches is placed in a cold room for about 1 hour. Ten nymphs are taken from the pan and placed in each cage and the caged insects are kept at 70°-80° F. for 1 hour. The test cages are then sprayed in the manner indicated above in the milkweed bug test using 5 ml. of a formulation containing a specified amount of the insecticide. The test cages are held for 72 hours during which time the cockroaches are neither fed nor watered. Controls consist of 2 unsprayed cages, two cages sprayed with the formulation alone and 2 cages with a formulation containing 1000 ppm of heptachlor. Mortality counts are made 24 hours after spraying by shaking the cages lightly. All cockroaches remaining in the bottom are counted as dead.

Two-spotted Spider Mite = Two-spotted Spider Mite test; type: in vivo, Tetranychus urticae (Acarina); conditions: 48 h
Method: The procedure in this test is the same as that in the previous aphid test, except that about 100 two-spotted spider mites from a stock colony raised on squash plants are transferred to a cut squash cotyledon. The mortality is estimated 48 hours after spraying. The same rating scale is used.

Milkweed Bug = Milkweed Bug Test; type: in vivo, Oncopeltis fasciatus (Hemiptera); conditions: 48 h
Method: Ten adult milkweed bugs are chilled and placed in a test cage. The cages containing the bugs are sprayed with 5 ml. of a test formulation containing a pre-determined amount of the insecticide, using a DeVilbiss atomizer at 10 psi held 33 inches from the top of the cage. After the cage has been allowed to dry, the bugs are fed and watered for 48 hours. A formulation containing 500 ppm of malathion is used as a reference standard and two unsprayed cages are kept as controls. Mortality counts are made 48 hours after spraying. Moribund adults are considered dead. The same rating scale is employed as before.

`O=[N+]([O-])c1cc(C(F)(F)F)cc2nc(C(F)(F)F)[nH]c12` [A, 2,6-bis(trifluoromethyl)-4-nitrobenzimidazole] gave a mortality rating (Boll Weevil; 5 ppm) of 7.5, a mortality rating (Boll Weevil; 10 ppm) of 6.7 and a mortality rating (Boll Weevil; 25 ppm) of 8.8. The mortality rating (Boll Weevil; 50 ppm) was 8.5, the average mortality rating (Squash Bug Adults; 125 ppm) was 0 (0-10 percent) and the average mortality rating (Squash Bug Adults; 250 ppm) was 6. For the same molecule, the average mortality rating (Squash Bug Adults; 500 ppm) was 9 (91-100 percent mortality), the average mortality rating (Squash Bug Adults; 750 ppm) was 9 (91-100 percent mortality) and the average mortality rating (Yellow Mealworm Larvae; 0.03 μg/μl) was 3. It also gave an average mortality rating (Yellow Mealworm Larvae; 0.07 μg/μl) of 5, an average mortality rating (Yellow Mealworm Larvae; 0.15 μg/μl) of 5 and an average mortality rating ([1]; 25 ppm) of 4. For the same molecule, the average mortality rating ([1]; 50 ppm) was 6, the average mortality rating ([1]; 100 ppm) was 7 and the average mortality rating ([2]; 10 ppm) was 1. The average mortality rating ([2]; 25 ppm) was 3, the average mortality rating ([2]; 50 ppm) was 6 and the average mortality rating ([2]; 100 ppm) was 5. The average mortality rating (Bean Leaf Beetle; 10 ppm) was 0 (0-10 percent), the average mortality rating (Bean Leaf Beetle; 25 ppm) was 0 (0-10 percent) and the average mortality rating (Bean Leaf Beetle; 50 ppm) was 1.
In the case of “mixture of benzyl 2,6-bis(trifluoromethyl)-4-nitro-1-benzimidazolecarboxylate and benzyl 2,5-bis(trifluoromethyl)-7-nitro-1-benzimidazolecarboxylate”, the mortality rating (Boll Weevil; 10 ppm) was 4.5, the mortality rating (Boll Weevil; 25 ppm) was 8.5 and the mortality rating (Boll Weevil; 50 ppm) was 7 (71-80). The mortality rating (Boll Weevil; 100 ppm) was 9 (91-100), the mortality rating (Boll Weevil; 250 ppm) was 9 (91-100) and the mortality rating (Boll Weevil; 500 ppm) was 9 (91-100). For the same molecule, the mortality rating (Boll Weevil; 1000 ppm) was 9 (91-100), the mortality rating (Southern Armyworm; 100 ppm) was 2 (21-30) and the mortality rating (Southern Armyworm; 500 ppm) was 6 (61-70). For the same molecule, the mortality rating (Southern Armyworm; 1000 ppm) was 7 (71-80), the average mortality rating (Yellow Mealworm Larvae; 0.03 μg/μl) was 1 and the average mortality rating (Yellow Mealworm Larvae; 0.07 μg/μl) was 4. For the same molecule, the average mortality rating (Yellow Mealworm Larvae; 0.15 μg/μl) was 5, the mortality rating (Oriental Cockroach; 50 ppm) was 1.5 and the mortality rating (Oriental Cockroach; 100 ppm) was 3 (31-40). The mortality rating (Oriental Cockroach; 250 ppm) was “.5”, the mortality rating (Oriental Cockroach; 500 ppm) was 1.5 and the mortality rating (Oriental Cockroach; 1000 ppm) was 9 (91-100). The mortality rating (Two-spotted Spider Mite; 10 ppm) was 8 (81-90), the mortality rating (Two-spotted Spider Mite; 25 ppm) was 7 (71-80) and the mortality rating (Two-spotted Spider Mite; 50 ppm) was 9 (91-100). For the same molecule, the mortality rating (Two-spotted Spider Mite; 100 ppm) was 9 (91-100), the mortality rating (Two-spotted Spider Mite; 250 ppm) was 9 (91-100) and the mortality rating (Two-spotted Spider Mite; 500 ppm) was 9 (91-100). The mortality rating (Two-spotted Spider Mite; 1000 ppm) was 9 (91-100), the mortality rating (Milkweed Bug; 10 ppm) was 0 (0-10) and the mortality rating (Milkweed Bug; 25 ppm) was 0 (0-10). The mortality rating (Milkweed Bug; 50 ppm) was 7 (71-80), the mortality rating (Milkweed Bug; 250 ppm) was 8 (81-90) and the mortality rating (Milkweed Bug; 500 ppm) was 8.5. For the same molecule, the mortality rating (Milkweed Bug; 1000 ppm) was 9 (91-100), the average mortality rating ([1]; 25 ppm) was 1 and the average mortality rating ([1]; 50 ppm) was 2. It also gave an average mortality rating ([1]; 100 ppm) of 4, an average mortality rating ([2]; 10 ppm) of 4 and an average mortality rating ([2]; 25 ppm) of 4. For the same molecule, the average mortality rating ([2]; 50 ppm) was 5, the average mortality rating ([2]; 100 ppm) was 7 and the average mortality rating (Bean Leaf Beetle; 10 ppm) was 0 (0-10 percent). It also gave an average mortality rating (Bean Leaf Beetle; 25 ppm) of 1 and an average mortality rating (Bean Leaf Beetle; 50 ppm) of 2.
Molecule `CC(C)OC(=O)n1c(C(F)(F)F)nc2c([N+](=O)[O-])cc(C(F)(F)F)cc21` [I, isopropyl 2,6-bis(trifluoromethyl)-4-nitro-1-benzimidazolecarboxylate] has a mortality rating (Boll Weevil; 25 ppm) of 8.5, a mortality rating (Boll Weevil; 50 ppm) of 8.5 and a mortality rating (Boll Weevil; 100 ppm) of 7.5. For the same molecule, the average mortality rating (Squash Bug Adults; 125 ppm) was 3, the average mortality rating (Squash Bug Adults; 250 ppm) was 1 and the average mortality rating (Squash Bug Adults; 500 ppm) was 0 (0-10 percent). For the same molecule, the average mortality rating (Squash Bug Adults; 750 ppm) was 0 (0-10 percent), the mortality rating (Oriental Cockroach; 100 ppm) was 1.5 and the mortality rating (Oriental Cockroach; 250 ppm) was 5.5. It also gave a mortality rating (Oriental Cockroach; 500 ppm) of 6.5, an average mortality rating ([2]; 10 ppm) of 2 and an average mortality rating ([2]; 25 ppm) of 3. The average mortality rating ([2]; 50 ppm) was 6, the average mortality rating ([2]; 100 ppm) was 9 (91-100 percent mortality) and the average mortality rating (Bean Leaf Beetle; 10 ppm) was 0 (0-10 percent). It also gave an average mortality rating (Bean Leaf Beetle; 25 ppm) of 1 and an average mortality rating (Bean Leaf Beetle; 50 ppm) of 3.
For “mixture of N,N-dimethyl-4-nitro-2,6-bis(trifluoromethyl)thio-1-benzimidazolecarboxamide and N,N-dimethyl-7-nitro-2,5-bis(trifluoromethyl)thio-1-benzimidazolecarboxamide [P]”, the mortality rating (Boll Weevil; 10 ppm) was 1.5, the mortality rating (Boll Weevil; 25 ppm) was 5 (51-60) and the mortality rating (Boll Weevil; 50 ppm) was 8 (81-90). For the same molecule, the mortality rating (Boll Weevil; 100 ppm) was 9 (91-100), the mortality rating (Boll Weevil; 250 ppm) was 9 (91-100) and the mortality rating (Boll Weevil; 500 ppm) was 9 (91-100). For the same molecule, the mortality rating (Boll Weevil; 1000 ppm) was 9 (91-100), the mortality rating (Southern Armyworm; 250 ppm) was 0 (0-10) and the mortality rating (Southern Armyworm; 500 ppm) was 0 (0-10). For the same molecule, the mortality rating (Southern Armyworm; 1000 ppm) was 3.5, the mortality rating (Oriental Cockroach; 50 ppm) was 0 (0-10) and the mortality rating (Oriental Cockroach; 100 ppm) was 2.5. The mortality rating (Oriental Cockroach; 250 ppm) was 5.5, the mortality rating (Oriental Cockroach; 500 ppm) was 9 (91-100) and the mortality rating (Oriental Cockroach; 1000 ppm) was 8 (81-90). The mortality rating (Two-spotted Spider Mite; 1 ppm) was 3 (31-40), the mortality rating (Two-spotted Spider Mite; 5 ppm) was 4 (41-50) and the mortality rating (Two-spotted Spider Mite; 10 ppm) was 4 (41-50). The mortality rating (Two-spotted Spider Mite; 25 ppm) was 6 (61-70), the mortality rating (Two-spotted Spider Mite; 50 ppm) was 7.0 and the mortality rating (Two-spotted Spider Mite; 100 ppm) was 7.5. For the same molecule, the mortality rating (Two-spotted Spider Mite; 250 ppm) was 8.5, the mortality rating (Two-spotted Spider Mite; 500 ppm) was 9 (91-100) and the mortality rating (Two-spotted Spider Mite; 1000 ppm) was 9 (91-100). For the same molecule, the mortality rating (Milkweed Bug; 10 ppm) was 0 (0-10), the mortality rating (Milkweed Bug; 25 ppm) was 0 (0-10) and the mortality rating (Milkweed Bug; 50 ppm) was 3.5. The mortality rating (Milkweed Bug; 100 ppm) was 4.5, the mortality rating (Milkweed Bug; 250 ppm) was 4 (41-50) and the mortality rating (Milkweed Bug; 500 ppm) was 4 (41-50). The mortality rating (Milkweed Bug; 1000 ppm) was 2 (21-30), the average mortality rating ([2]; 10 ppm) was 5 and the average mortality rating ([2]; 25 ppm) was 4. The average mortality rating ([2]; 50 ppm) was 5 and the average mortality rating ([2]; 100 ppm) was 9 (91-100 percent mortality).
`O=[N+]([O-])c1cc(C(F)(F)F)cc2[nH]c(C(F)(F)Cl)nc12` [L, 2-chlorodifluoromethyl-4-nitro-6-trifluoromethylbenzimidazole] was tested, and the mortality rating (Boll Weevil; 10 ppm) was “.5”, the mortality rating (Boll Weevil; 25 ppm) was 1.5 and the average mortality rating (Squash Bug Adults; 125 ppm) was 0 (0-10 percent). The average mortality rating (Squash Bug Adults; 250 ppm) was 6, the average mortality rating (Squash Bug Adults; 500 ppm) was 6 and the average mortality rating (Squash Bug Adults; 750 ppm) was 9 (91-100 percent mortality). It also gave a mortality rating (Southern Armyworm; 500 ppm) of 1.5, an average mortality rating (Yellow Mealworm Larvae; 0.03 μg/μl) of 5 and an average mortality rating (Yellow Mealworm Larvae; 0.07 μg/μl) of 5. For the same molecule, the average mortality rating (Yellow Mealworm Larvae; 0.15 μg/μl) was 9 (91-100 percent mortality), the mortality rating (Oriental Cockroach; 500 ppm) was 5.5 and the mortality rating (Two-spotted Spider Mite; 5 ppm) was 7.5. It also gave a mortality rating (Milkweed Bug; 100 ppm) of 4.5, an average mortality rating ([1]; 25 ppm) of 1 and an average mortality rating ([1]; 50 ppm) of 4. For the same molecule, the average mortality rating ([1]; 100 ppm) was 6, the average mortality rating (Bean Leaf Beetle; 10 ppm) was 1 and the average mortality rating (Bean Leaf Beetle; 25 ppm) was 1. The average mortality rating (Bean Leaf Beetle; 50 ppm) was 0 (0-10 percent).
